Converted amounts (≈) assume the structure as drawn.
Legend:
CpLIP2 lipase = CpLIP2 lipase (Candida parapsilosis, UniProt Q8NIN8); assay: Quenching of CpLIP2 intrinsic tryptophan fluorescence by flavonols (Stern–Volmer, Lehrer, van't Hoff analysis); type: binding; conditions: for KSV (Stern–Volmer quenching constant): CpLIP2 2.5 µM, pH 7.0, flavonol 2.5–25 µM (GAL 2.5–17.5 µM); for Kq (bimolecular quenching constant): Kq = KSV/τ0, τ0 1.59 ns; for KSV (accessible), Stern–Volmer quenching constant of the exposed W residues / fa (fraction of accessible W residues to the quencher): Lehrer equation; for ΔG (free energy change): ΔG = ΔH − TΔS; for Kd: Kd (dissociation constant)
Source text: The fluorescence quenching spectra of CpLIP2 lipase submitted to increasing concentrations of GAL, KAE, QUE and MYR are shown in Figure 3. A remarkable quenching of the CpLIP2 fluorescence emission was observed. […] The fluorescence quenching is usually described by the linear Stern–Volmer Equations (2) and (3):(2) F0/F = 1 + Ksv [Q] = 1 + Kqτ0 [Q] (3) Kq=Ksv/τ0 where F0 and F are the intrinsic fluorescence intensities of CpLIP2 lipase (fluorophore) in absence or presence of quencher (flavonol), respectively. Kq is the bimolecular quenching constant, τ0 is the lifetime of the fluorophore in the absence of the quencher, [Q] is the concentration of the quencher, and KSV is the Stern–Volmer quenching constant.
The mechanism of quenching, occurring between CpLIP2 lipase and flavonols, was characterized by determining the values of Kq and the thermodynamic parameters by varying the temperature. […] In both cases, the bimolecular quenching constant Kq can be calculated by the ratio between KSV and τ0, itself determined at 1.59 ns for Human Pancreatic Lipase.
The inaccessible or buried residues are responsible for the remaining fluorescence, which is probably independent of the quencher concentration. […] An up-down curvature towards the x-axis has been shown for the four flavonols (Figure 4), indicating the presence of two populations of fluorophores, part of which would not be accessible. That means that some W residues are buried inside the lipase structure and that other residues are exposed to the solvent. Therefore, data were analyzed through the Lehrer equation, also known as the modified (or non-linear) Stern–Volmer Equation (4):(4) F0/ F0−F = 1/ fa Ksv 1/ [Q] +1/ fa
For static quenching, the equilibrium between free and bound CpLIP2 lipase, when the ligand molecules bind independently to equivalent sites of macromolecules, can be described by the following Equation (5):(5) log10F0−F/F=nlog10[Q]+log10Ka where Ka is the binding constant and n the number of binding sites per CpLIP2 molecule.
The results were determined for all flavonols tested at different temperatures from the plots of log10 F0 − F/F versus log10 [Q] and listed in Table 2. The plots show a linear relationship from which the slope equal to n and intercept on y-axis equal to log10 Ka. For the four flavonols, the Ka values increased when the temperatures increased. In addition, the n values were less than 1.0 in all cases and increased according to the temperature. […] Values of the dissociation constant of complexes were deduced from the Stern–Volmer Equation (6) and (7), for which Kd is expressed as the inverse of fa Ksv product. (6) F0/ F0−F= Kd 1/ [Q] +1 (7) Kd= 1/fa Ksv
Thermodynamic parameters were calculated to determine the type of binding forces that contribute in the CpLIP2 lipase–flavonol interactions. […] Both the enthalpy (ΔH) and entropy changes (ΔS) can be estimated from the following van′t Hoff Equation (8):(8) Ln Ka = − ΔH /RT + ΔS /R
The values of Gibbs binding free energy change (ΔG) are calculated from the following Equation (9):(9) ΔG= ΔH − TΔS
To fill up the volume of 300 µL by well, 190 µL of sodium phosphate buffer solution (75 mM, pH 7.0) was added to each well to obtain final concentration at 50 mM. Then, 100 µL of ethanol absolute–water ultrapure (2:8, v/v) solution was added to obtain a final amount of ethanol […] in the well of 300 µL. […] The final concentration of ethanol during the experiments never exceeded 0.07% (v/v). The last step was to add 10 µL of lipase after to have optimized the final concentration of CpLIP2 equal to 2.5 µM for all our assays, giving the optimal fluorescence intensity for all measurements. The measurement of intrinsic fluorescence started after mechanical shaking for 30 s inside the multi-plate reader. […]

pancreatic lipase (PL) = biological target: pancreatic lipase (PL); parameters: method as in PMID 23363068; conditions: in vitro assay; cited from earlier work

Sequence of CpLIP2 lipase (Q8NIN8 entry or part of it): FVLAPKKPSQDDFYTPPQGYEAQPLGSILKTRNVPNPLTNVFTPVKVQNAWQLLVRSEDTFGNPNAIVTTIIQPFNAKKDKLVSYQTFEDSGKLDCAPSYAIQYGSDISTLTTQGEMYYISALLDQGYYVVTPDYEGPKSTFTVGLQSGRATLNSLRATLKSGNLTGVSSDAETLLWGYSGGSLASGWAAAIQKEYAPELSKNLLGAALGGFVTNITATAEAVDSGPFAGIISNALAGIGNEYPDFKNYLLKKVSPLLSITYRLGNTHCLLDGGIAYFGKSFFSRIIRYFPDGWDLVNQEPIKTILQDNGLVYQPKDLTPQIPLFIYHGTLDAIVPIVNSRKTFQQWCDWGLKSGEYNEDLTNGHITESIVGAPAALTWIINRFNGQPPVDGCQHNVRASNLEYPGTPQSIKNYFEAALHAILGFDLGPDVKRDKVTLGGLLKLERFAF

O=c1c(O)c(-c2ccccc2)oc2cc(O)cc(O)c12 [GAL, galangin]
Ka (association constant) (CpLIP2 lipase; 298 K): 323 ± 8 L/mol | n (number of binding sites) (CpLIP2 lipase; 298 K): 0.58 ± 0.18 | KSV (Stern–Volmer quenching constant) (CpLIP2 lipase; 298 K): 2.9 ± 0.1 × 10^4 L·mol^−1 | Kq (bimolecular quenching constant) (CpLIP2 lipase; 298 K): 1.8e+13 M⁻¹ s⁻¹ | KSV (accessible), Stern–Volmer quenching constant of the exposed W residues (CpLIP2 lipase; 298 K): 360000 L/mol | fa (fraction of accessible W residues to the quencher) (CpLIP2 lipase; 298 K): 0.37 | ΔG (free energy change) (CpLIP2 lipase; 298 K): -20.2 kcal/mol | Ka (association constant) (CpLIP2 lipase; 308 K): 502 ± 10 L/mol | n (number of binding sites) (CpLIP2 lipase; 308 K): 0.63 ± 0.21 | KSV (Stern–Volmer quenching constant) (CpLIP2 lipase; 308 K): 2.4 ± 0.9 × 10^4 L·mol^−1 | Kq (bimolecular quenching constant) (CpLIP2 lipase; 308 K): 1.5e+13 M⁻¹ s⁻¹ | KSV (accessible), Stern–Volmer quenching constant of the exposed W residues (CpLIP2 lipase; 308 K): 360000 L/mol | fa (fraction of accessible W residues to the quencher) (CpLIP2 lipase; 308 K): 0.34 | ΔG (free energy change) (CpLIP2 lipase; 308 K): -20.9 kcal/mol | Ka (association constant) (CpLIP2 lipase; 318 K): 616 ± 10 L/mol | n (number of binding sites) (CpLIP2 lipase; 318 K): 0.66 ± 0.21 | KSV (Stern–Volmer quenching constant) (CpLIP2 lipase; 318 K): 2.1 ± 0.8 × 10^4 L·mol^−1 | Kq (bimolecular quenching constant) (CpLIP2 lipase; 318 K): 1.3e+13 M⁻¹ s⁻¹ | KSV (accessible), Stern–Volmer quenching constant of the exposed W residues (CpLIP2 lipase; 318 K): 290000 L/mol | fa (fraction of accessible W residues to the quencher) (CpLIP2 lipase; 318 K): 0.33 | ΔG (free energy change) (CpLIP2 lipase; 318 K): -21.6 kcal/mol | n (number of binding sites) (CpLIP2 lipase; 328 K): 0.66 ± 0.04 | KSV (Stern–Volmer quenching constant) (CpLIP2 lipase; 328 K): 1.5 ± 0.6 × 10^4 L·mol^−1 | Kq (bimolecular quenching constant) (CpLIP2 lipase; 328 K): 1e+13 M⁻¹ s⁻¹ | KSV (accessible), Stern–Volmer quenching constant of the exposed W residues (CpLIP2 lipase; 328 K): 420000 L/mol | fa (fraction of accessible W residues to the quencher) (CpLIP2 lipase; 328 K): 0.25 | ΔG (free energy change) (CpLIP2 lipase; 328 K): -22.3 kcal/mol | Kd (CpLIP2 lipase; 298 K): 8 ± 3 µM | Kd (CpLIP2 lipase; 308 K): 8 ± 4 µM | Kd (CpLIP2 lipase; 318 K): 11 ± 6 µM | Kd (CpLIP2 lipase; 328 K): 10 ± 6 µM | order of magnitude of Kq (CpLIP2 lipase; all temperatures of Table 1): ~10^13 L mol^−1 s^−1 | ΔS (entropy changes) (CpLIP2 lipase; van't Hoff plot, 298–328 K): 0.28 kJ·mol^−1·K^−1 | IC50 (pancreatic lipase (PL)): 48.2 mg/mL (≈ 178 mM)
